According to patent US20090018162A1, “USE OF 6-(3-CHLORO-2-FLUOROBENZYL)-1-[(2S)-1-HYDROXY-3-METHYLBUTAN-2-YL]-7-METHOXY-4-OXO-1,4-DIHYDROQUINOLINE-3-CARBOXYLIC ACID OR SALT THEREOF FOR TREATING RETROVIRUS INFECTION” (priority 2006, published 2009):
Read-outs that look alike come from different tables or passages of the source.

What was measured:
[1] = system: drug-resistant HIV-1 isolates; experiment: Anti-HIV efficacy in fresh human PBMCs, drug-resistant HIV-1 isolates; conditions: for IC50: Human immunodeficiency virus 1, PBMC, in Homo sapiens
[2] = system: HIV-1 macrophage-tropic virus strains; experiment: microbe, parasite or virus in culture; conditions: in Homo sapiens
[3] = system: recombinant HIV-1 clones (patient protease/RT sequences in HIV-1 NL4-3); experiment: microbe, parasite or virus in culture; assay type: cell-based; conditions: one experiment
human PBMCs [4] = conditions: 7 days
HIV-2 CDC 310319 [5] = conditions: HIV-2 CDC 310319 in PBMCs
[6] = MTS staining for PBMC viability (cytotoxicity); conditions: human
human PBMCs [7] = experiment: MTS staining for PBMC viability (cytotoxicity); conditions: read-out: TC50, PBMCs, MTS
HIV-2 CDC 310319 [8] = experiment: microbe, parasite or virus in culture; conditions: Human immunodeficiency virus 2, PBMC
[9] = MTS cytotoxicity in monocyte/macrophage cultures; assay type: cell-based; conditions: human, fresh adherent monocyte/macrophage cultures, HIV-infected, macrophages, MTS, read-out: TC50
Method: Anti-HIV Efficacy Evaluation in Fresh Human Monocyte/Macrophage. Monocytes/macrophages were allowed to adhere to the interior 60 wells of a 96 well flat bottomed plate for 2 to 18 hours at 37° C., 5% CO2. Following 6 to 14 days in culture, the monocyte/macrophage cultures were washed 3 times to remove any non-adherent cells and serially diluted test compounds were added followed by the addition of a pre-titered amount of HIV. Cultures were washed a final time by media removal 24 hours post infection, fresh compound added and the cultures continued for an additional six days. […] At assay termination, virus replication was measured by collecting cell-free supernatant samples which were analyzed for HIV p24 antigen content using a commercially available p24 ELISA assay (Coulter). […] MTS staining for PBMC viability to measure cytotoxicity. […] The mitochondrial enzymes of metabolically active cells metabolize MTS to yield a soluble formazan product. This allows the rapid quantitative analysis of cell viability and compound cytotoxicity. […] At termination of the assay, 20 μL of MTS reagent was added per well. The microtiter plates were then incubated 4-6 hrs at 37° C. The incubation intervals were chosen based on empirically determined times for optimal dye reduction. […] Data analysis.

HIV-1 clinical isolates [10] = experiment: microbe, parasite or virus in culture; conditions: Human immunodeficiency virus 1, PBMC
[11] = system: HIV-1 macrophage-tropic virus strains
HIV-1 clinical isolates [12] = system: HIV-1 clinical isolates

COc1cc2c(cc1Cc1cccc(Cl)c1F)c(=O)c(C(=O)O)cn2[C@H](CO)C(C)C [Compound I, 6-(3-chloro-2-fluorobenzyl)-1-[(2S)-1-hydroxy-3-methylbutan-2-yl]-7-methoxy-4-oxo-1,4-dihydroquinoline-3-carboxylic acid]
TI (TC50/IC50) ([1]; HIV-1 52-52 in PBMCs): >588.2 | TI (TC50/IC50) ([1]; HIV-1 144-44 in PBMCs): >138.89 | TI (TC50/IC50) ([1]; HIV-1 1002-60 in PBMCs): >769.2 | TI (TC50/IC50) ([1]; HIV-1 1064-52 in PBMCs): >158.7 | TI (TC50/IC50) ([1]; HIV-1 MDR 769 in PBMCs): >555.6 | TI (TC50/IC50) ([1]; HIV-1 MDR 807 in PBMCs): >88.5 | TI (TC50/IC50) ([1]; HIV-1 MDR 1385 in PBMCs): >5000.0 | TI (TC50/IC50) ([1]; HIV-1 MDR 3761 in PBMCs): >137.0 | IC50 ([1]; HIV-1 52-52 (protease-inhibitor resistant) in PBMCs): 0.17 nM | IC50 ([1]; against several viruses (e.g., MDR 1385, MDR 3761) in PBMCs): < 1 nM | IC50 ([1]; multi-drug-resistant HIV-1 MDR 769 in PBMCs): 0.18 nM | IC50 ([1]; multi-drug-resistant HIV-1 MDR 807 in PBMCs): 1.13 nM | IC50 ([1]; multi-drug-resistant HIV-1 MDR 1385 in PBMCs): 0.02 nM | IC50 ([1]; multi-drug-resistant HIV-1 MDR 3761 in PBMCs): 0.73 nM | IC50 ([2]; Human immunodeficiency virus 1, BAL, Macrophage, HIV-1 Ba-L in macrophages): 0.67 nM | IC50 ([2]; Human immunodeficiency virus 1, Macrophage, HIV-1 ADA in macrophages): 0.07 nM | IC50 ([2]; Human immunodeficiency virus 1, Macrophage, HIV-1 JR-CSF in macrophages): 0.31 nM | EC50 ([3]; Human immunodeficiency virus 1, NL43, 120 recombinant clones): 1.06 nM | EC50 ([3]; Human immunodeficiency virus 1, NL43, Reference clone (NL4-3), ten replicates): 1.11 nM | CC50 (human PBMCs [4]): > 100 nM | TI (TC50/IC50) (HIV-2 CDC 310319 [5]): >188.7 | CC50 at 7 days [6]: > 100 nM | CC50 (human PBMCs [7]; 52-52 assay): > 100 nM | CC50 (human PBMCs [7]; 96USHIPS7 assay): > 100 nM | CC50 (human PBMCs [7]; 144-44 assay): > 100 nM | CC50 (human PBMCs [7]; 1002-60 assay): > 100 nM | CC50 (human PBMCs [7]; 1064-52 assay): > 100 nM | CC50 (human PBMCs [7]; BFC01 assay): > 100 nM | CC50 (human PBMCs [7]; BR/92/025 assay): > 100 nM | CC50 (human PBMCs [7]; BR/93/017 assay): > 100 nM | CC50 (human PBMCs [7]; BR/93/020 assay): > 100 nM | CC50 (human PBMCs [7]; BR/93/022 assay): > 100 nM | CC50 (human PBMCs [7]; CMU 02 assay): > 100 nM | CC50 (human PBMCs [7]; HIV-2 CDC 310319 assay): > 100 nM | CC50 (human PBMCs [7]; JV 1083 assay): > 100 nM | CC50 (human PBMCs [7]; RW/92/016 assay): > 100 nM | CC50 (human PBMCs [7]; UG/92/046 assay): > 100 nM | IC50 (HIV-2 CDC 310319 [8]): 0.53 nM | CC50 at 7 days ([9]; ADA assay): > 500 nM | CC50 at 7 days ([9]; Ba-L assay): > 500 nM | CC50 at 7 days ([9]; JR-CSF assay): > 100 nM | IC50 (HIV-1 clinical isolates [10]; HIV-1 96USHIPS7 (subtype /B, R5) in PBMCs): 0.26 nM | IC50 (HIV-1 clinical isolates [10]; HIV-1 BR/92/021 (subtype B/B, R5) in PBMCs): 0.76 nM | IC50 (HIV-1 clinical isolates [10]; HIV-1 BR/93/020 (subtype F/F, R5/X4) in PBMCs): 0.74 nM | IC50 (HIV-1 clinical isolates [10]; HIV-1 CMU 02 (subtype /EA, X4) in PBMCs): 1.26 nM | IC50 (HIV-1 clinical isolates [10]; HIV-1 JV 1083 (subtype /G, R5) in PBMCs): 0.35 nM | IC50 (HIV-1 clinical isolates [10]; HIV-1 RW/92/016 (subtype A/A, R5) in PBMCs): 0.41 nM | IC50 (HIV-1 clinical isolates [10]; HIV-1 UG/92/046 (subtype D/D, X4) in PBMCs): 0.5 nM | TI (TC50/IC50) ([11]; HIV-1 ADA in macrophages): >7142.9 | TI (TC50/IC50) ([11]; HIV-1 Ba-L in macrophages): >746.3 | TI (TC50/IC50) ([11]; HIV-1 JR-CSF in macrophages): >322.6 | TI (TC50/IC50) (HIV-1 clinical isolates [12]; HIV-1 96USHIPS7 in PBMCs): >384.6 | TI (TC50/IC50) (HIV-1 clinical isolates [12]; HIV-1 BFC01 in PBMCs): >85.5 | TI (TC50/IC50) (HIV-1 clinical isolates [12]; HIV-1 BR/92/021 in PBMCs): >131.6 | TI (TC50/IC50) (HIV-1 clinical isolates [12]; HIV-1 BR/92/025 in PBMCs): >1000.0 | TI (TC50/IC50) (HIV-1 clinical isolates [12]; HIV-1 BR/93/017 in PBMCs): >555.6 | TI (TC50/IC50) (HIV-1 clinical isolates [12]; HIV-1 BR/93/020 in PBMCs): >135.1 | TI (TC50/IC50) (HIV-1 clinical isolates [12]; HIV-1 BR/93/022 in PBMCs): >88.5 | TI (TC50/IC50) (HIV-1 clinical isolates [12]; HIV-1 CMU 02 in PBMCs): >79.4 | TI (TC50/IC50) (HIV-1 clinical isolates [12]; HIV-1 JV 1083 in PBMCs): >285.7 | TI (TC50/IC50) (HIV-1 clinical isolates [12]; HIV-1 RW/92/016 in PBMCs): >243.9 | TI (TC50/IC50) (HIV-1 clinical isolates [12]; HIV-1 UG/92/046 in PBMCs): >200.0
